Test results reported in ChEMBL document CHEMBL1140273, “Carbonic anhydrase inhibitors: novel sulfonamides incorporating 1,3,5-triazine moieties as inhibitors of the cytosolic and tumour-associated carbonic anhydrase isozymes I, II and IX” (Bioorg Med Chem Lett, 2005).

The molecules below were run against Carbonic anhydrase 9 (Homo sapiens, UniProt Q16790).

Structure (SMILES)	Ki [nM]
NS(=O)(=O)c1ccc(Nc2nc(Oc3ccccc3)nc(Oc3ccccc3)n2)cc1	254
CC(C)Nc1nc(NCc2ccc(S(N)(=O)=O)cc2)nc(NC(C)C)n1	16

Next, values leading:

Ki [nM]	Structure (SMILES)
56	CCCNc1nc(NCCC)nc(Nc2ccc(S(N)(=O)=O)cc2)n1
7.5	CCN(CC)c1nc(NCc2ccc(S(N)(=O)=O)cc2)nc(N(CC)CC)n1
1	NS(=O)(=O)c1ccc(CCNc2nc(Cl)nc(NCC(=O)O)n2)cc1
